From patent US6683186B2, “2,3-Disubstituted pyridine derivative, process for the preparation thereof, pharmaceutical composition containing the same, and intermediate therefor” (Dainippon Pharmaceutical Company, Limited, priority 1998, dated 2004)
pIC50: −log10 of the molar value. Structures can show the parent of a compound that is named as a salt. Where two headings read alike, the source gives them in different places.

Key:
[1] = system: bronchoconstriction of guinea pig induced by the antigen; assay: Inhibitory effect on antigen-induced bronchoconstriction (Konzett-Roessler method); format: in vivo; details: sensitized guinea pigs; for inhibition in vivo at 3 mg/kg / inhibition in vivo at 10 mg/kg / inhibition in vivo at 30 mg/kg: Cavia porcellus, po, read-out: Inhibitory Rate; for inhibition in vivo at 3 mg/kg: 3 mg/kg orally; for inhibition in vivo at 30 mg/kg: 30 mg/kg orally
Protocol: Hartley male guinea pigs were actively sensitized by intraperitoneally administering an ovalbumin (manufacture by Sigma). Four weeks thereafter, the animals were anesthetized with Nembutal (50 mg/kg, i.p., manufactured by Dainabot Co., Ltd.), and a cannual was inserted at the airway, and the bronchoconstriction response of the animals under artificial respiration was observed. The response of the airway was measured by Konzett-Roessler method (Naunyn-Schmiedebergs, Aech. Exp. Pathol. Pharmacol., vol. 195, p. 71 (1940)). A test compound (the compounds of Examples of the present invention as listed in Table 3) was orally administered to the animals one hour prior to the administration of the antigen (i.e., ovalbumin, 0.05%/physiological saline solution, i.v.). Only the compound of Example 31 was orally administered 2 hours prior to the administration of the antigene. The inhibitory rate (%) caused by the test compound was calculated by comparing the bronchoconstriction response of the test compound-treated group with that of the control group to which only a solvent was administered.

[2] = system: PDE IV isolated and purified from guinea pig eosinophils; assay: PDE IV inhibitory activity test; format: biochemical; details: hydrolysis of cAMP by enzyme preparation from guinea pig eosinophils; read-out: 50% Inhibitory Concentration
Protocol: The PDE IV inhibitory activity test was carried out according to a method using cosinophils prepared from the abdomen of guinea pig (Souness, J. E. et al., Biochem. Pharmacol. vol. 42, p. 937 (1991)). That is, a homogenizing buffer (10 ml, components: 20 mM Tris-HCl buffer (pH 7.5); 2 mM magnesium chloride; 1 mM dithiothreitol, 5 mM ethylenediamine tetraacetate disodium; 250 mM sucrose; 20 μM p-tosyl-l-lysine-chloromethylketone; 10 μg/ml Leupeptine) was added to 5×10^7 cells, and the mixture was centrifuged. To the residue was added a solubilizing buffer (10 ml, sodium deoxycholate (final concentration: 0.5%) and sodium chloride (final concentration: 100 mM) were added to the above homogenizing buffer), and the mixture was centrifuged again. The supernatant was subjected to ultrafiltration using Molcut-II (manufactured by Japan Millipore Limited), and the fraction on the membrane was collected by adding a homogenizing buffer (10 ml) to give an enzyme preparation. Inhibitory activity against the enzyme was determined by comparing the hydrolysis rates of a substrate, cAMP (manufactured by Nacalai Tesque Inc.), by the above enzyme fraction between in the test compound-treated group and the vehicle group.

[3] = acute toxicity test; format: in vivo; details: dose of 2000 mg/kg
Excerpt: Besides, the present compounds (I) of the present invention are low toxic.

[4] = 1 h, one hour prior to antigen (ovalbumin i.v.)
[5] = 1 h, 10 mg/kg orally, one hour prior to antigen (ovalbumin i.v.)
[6] = 2 hours prior to antigen (ovalbumin i.v.)

| Structure (SMILES) | pIC50 [2] | inhibition in vivo at 10 mg/kg [1, 5] [%] | other results |
| --- | --- | --- | --- |
| Oc1cnccc1CCCOc1cccnc1Oc1cccc(Br)c1 [Example 32, 2-(3-bromophenoxy)-3-[3-(3-hydroxypyridin-4-yl)-propoxy]pyridine] | 7.85 | 70 | inhibition in vivo at 3 mg/kg [1, 4]: 34%; inhibition in vivo at 30 mg/kg [1, 4]: 72% |
| COc1ccc(C2CNC(=O)C2)cc1OC1CCCC1 (stereo not shown) [Rolipram, reference compound] | 7.55 | – | – |
| Oc1cnccc1CCCOc1cccnc1Nc1cccc(Br)c1 [Example 46, 2-(3-bromoanilino)-3-[3-(3-hydroxypyridin-4-yl)propoxy]-pyridine] | – | 45.7 | – |
| CC(=O)Oc1cnccc1CCCOc1cccnc1Oc1ccccc1 [Example 56, 2-phenoxy-3-[3-(3-acetoxypyridin-4-yl)propoxy]pyridine] | 8.25 | – | – |
| CC(=O)Oc1cnccc1CCCOc1cccnc1Oc1cccc(Cl)c1 [Example 54, 2-(3-chlorophenoxy)-3-[3-(3-acetoxypyridin-4-yl)propoxy]-pyridine.monofumarate] | 7.20 | 33 | – |
| c1ccc(Sc2ncccc2OCCCc2ccncc2)cc1 [Example 15] | 8.01 | – | melting point: 41 to 43 °C |
| CC(=O)Oc1cnccc1CCCOc1cccnc1Cc1cccc(Br)c1 [Example 57, 2-(3-bromobenzyl)-3-[3-(3-acetoxypyridin-4-yl)propoxy]-pyridine.1.5 fumarate] | 7.64 | – | – |
| Oc1cnccc1CCCOc1cccnc1Sc1cccc(Br)c1 [Example 26, 2-(3-bromophenylthio)-3-[3-(3-hydroxypyridin-4-yl)-propoxy]pyridine] | – | 48.3 | – |
| COc1ccc([C@]2(C#N)CC[C@@H](C(=O)O)CC2)cc1OC1CCCC1 [SB-207499, reference compound] | 7.96 | – | – |
| Brc1cccc(Sc2ncccc2OCCCc2ccncc2)c1 [Example 7, 2-(3-bromophenylthio)-3-[3-(pyridin-4-yl)propoxy]pyridine] | 7.47 | 77.2 | melting point: 89 to 90 °C |
| N#Cc1cccc(Oc2ncccc2OCCCc2ccncc2O)c1 [Example 28, 2-(3-cyanophenoxy)-3-[3-(3-hydroxypyridin-4-yl)-propoxy]pyridine] | – | 54 | – |
| COc1cccc(Sc2ncccc2OCCCc2ccncc2)c1 [Example 14] | 7.82 | – | melting point: 84 to 85 °C |
| Oc1cnccc1CCCOc1cccnc1Oc1cccc(Cl)c1 [Example 31, 2-(3-chlorophenoxy)-3-[3-(3-hydroxypyridin-4-yl)-propoxy]pyridine] | 7.80 | – | inhibition in vivo at 3 mg/kg [1, 6]: 39%; inhibition in vivo at 10 mg/kg ([1]; 10 mg/kg orally, 2 hours prior to antigen (ovalbumin i.v.)): 66%; inhibition in vivo at 30 mg/kg [1, 6]: 69%; toxicity in acute toxicity test [3]: never showed any toxicity |
| CCOC(=O)c1cccc(Oc2ncccc2OCCCc2ccncc2O)c1.CCOC(=O)c1cccc(Oc2ncccc2OCCCc2ccncc2O)c1.O=C(O)/C=C/C(=O)O [Example 29, 2-(3-ethoxycarbonylphenoxy)-3-[3-(3-hydroxypyridin-4-yl)propoxy]pyridine.0.5 fumarate] | – | – | Inhibitory Rate ([1]; 10 mg/kg orally, one hour prior to antigen (ovalbumin i.v.)): 42% |
| Brc1cccc(Sc2ncccc2OCCCc2cccnc2)c1 [Example 3, 2-(3-bromophenylthio)-3-[3-(pyridin-3-yl)propoxy]-pyridine] | 7.45 | 59.9 | – |
| Oc1cccc(Sc2ncccc2OCCCc2ccncc2)c1 [Example 13, 2-(3-hydroxyphenylthio)-3-[3-(pyridin-4-yl)propoxy]pyridine] | – | – | melting point: 158 to 159 °C |
| Oc1cnccc1CCCOc1cccnc1Oc1ccccc1 [Example 30, 2-phenoxy-3-[3-(3-hydroxypyridin-4-yl)propoxy]pyridine] | 7.96 | 46.5 | – |

Second part, led by results:

| pIC50 [2] | Structure (SMILES) | inhibition in vivo at 10 mg/kg [1, 5] [%] | other results |
| --- | --- | --- | --- |
| 7.46 | Oc1cnccc1CCCOc1cccnc1Oc1cccc(F)c1 [Example 44, 2-(3-fluorophenoxy)-3-[3-(3-hydroxypyridin-4-yl)-propoxy]pyridine] | 55 | – |
| 6.82 | CS(=O)(=O)Nc1cnccc1CCCOc1cccnc1Oc1cccc(Cl)c1 [Example 70, 2-(3-chlorophenoxy)-3-[3-(3-methylsulfonylaminopyridin-4-yl)propoxy]pyridine] | – | – |
| 7.59 | Brc1cccc(Oc2ncccc2OCCCc2ccncc2)c1 [Example 35, 2-(3-bromophenoxy)-3-[3-(pyridin-4-yl)propoxy]pyridine] | 49.3 | – |
| 6.70 | Oc1cncc(Cl)c1CCCOc1cccnc1Oc1cccc(Cl)c1 [Example 73, 2-(3-chlorophenoxy)-3-[3-(3-chloro-5-hydroxypyridin-4-yl)propoxy]pyridine] | – | – |
| 7.07 | Oc1cncc(CCCOc2cccnc2Oc2cccc(Cl)c2)c1 [Example 65, 2-(3-chlorophenoxy)-3-[3-(5-hydroxypyridin-3-yl)-propoxy]pyridine] | – | – |
| 7.57 | c1ccc(Oc2ncccc2OCCCc2ccncc2)cc1 [Example 37, 2-phenoxy-3-[3-(pyridin-4-yl)propoxy]pyridine] | 49.6 | melting point: 97 to 98 °C |
| 7.63 | COC(=O)c1cccc(Oc2ncccc2OCCCc2ccncc2)c1 [Example 53, 2-(3-methoxycarbonylphenoxy)-3-[3-(pyridin-4-yl)-propoxy]pyridine] | – | – |
| 7.39 | Nc1cncc(O)c1CCCOc1cccnc1Oc1cccc(Cl)c1 [Example 69, 2-(3-chlorophenoxy)-3-[3-(3-amino-5-hydroxypyridin-4-yl)propoxy]pyridine.1.0 fumarate] | – | – |
| 7.41 | N#Cc1cccc(Oc2ncccc2OCCCc2ccncc2)c1 [Example 41, 2-(3-Cyanophenoxy)-3-[3-(pyridin-4-yl)propoxy]pyridine] | – | melting point: 112 to 113 °C |
| 9.74 | COc1ccc(C(=O)Nc2c(Cl)cncc2Cl)cc1OC1CCCC1 [RP-73401, reference compound] | – | – |
| 7.74 | Brc1cccc(Oc2ncccc2OCCCc2cccnc2)c1 [Example 40] | 45.3 | melting point: 46 to 48 °C |
| 7.69 | Fc1cccc(Oc2ncccc2OCCCc2ccncc2)c1 [Example 39, 2-(3-fluorophenoxy)-3-[3-(pyridin-4-yl)propoxy]pyridine] | 66.3 | melting point: 117 to 118 °C |
